Measurements as given in ChEMBL document CHEMBL1148837, “Development of new pyrrolopyrimidine-based inhibitors of Janus kinase 3 (JAK3)” (Bioorg Med Chem Lett, 2007).

Test system: TF-1
Assay: cells
Format: functional, cell-based
Details: Homo sapiens
Description: Inhibition of IL4-induced TF1 cell proliferation

| IC50 [nM] | SMILES |
| --- | --- |
| 1160 | COC[C@H](C)Nc1nc(-n2cnc3ccncc32)nc2c1cc(C(=O)N1CCN(C)CC1)n2C |
| 80 | C[C@H](Nc1nc(-n2cnc3ccncc32)nc2c1cc(C(=O)N1CCN(C)CC1)n2C)c1ccccc1 |
| 460 | C[C@H](Nc1nc(-n2cnc3ccncc32)nc2c1cc(C(=O)NCCN(C)C)n2C)c1ccccc1 |
| 910 | C[C@H](Nc1nc(-n2cnc3ccncc32)nc2c1cc(C(=O)NCCCN1CCOCC1)n2C)c1ccccc1 |
| 670 | C[C@H](Nc1nc(-n2cnc3ccncc32)nc2c1cc(C(=O)N1CCOCC1)n2C)c1ccccc1 |
| 450 | CONC(=O)c1cc2c(N[C@@H](C)c3ccccc3)nc(-n3cnc4ccncc43)nc2n1C |
| 490 | COc1ccc(Cl)c(Nc2nc(-n3cnc4ccncc43)nc3c2cc(C(=O)N2CCN(C)CC2)n3C)c1 |

Test system: TF-1
Assay: cells
Format: functional, cell-based
Details: Homo sapiens
Remark: another data set of the same source
Description: Inhibition of IL3-induced TF1 cell proliferation

| IC50 [nM] | SMILES |
| --- | --- |
| 4790 | COC[C@H](C)Nc1nc(-n2cnc3ccncc32)nc2c1cc(C(=O)N1CCN(C)CC1)n2C |
| 90 | C[C@H](Nc1nc(-n2cnc3ccncc32)nc2c1cc(C(=O)N1CCN(C)CC1)n2C)c1ccccc1 |
| 1950 | C[C@H](Nc1nc(-n2cnc3ccncc32)nc2c1cc(C(=O)NCCN(C)C)n2C)c1ccccc1 |
| 2790 | C[C@H](Nc1nc(-n2cnc3ccncc32)nc2c1cc(C(=O)NCCCN1CCOCC1)n2C)c1ccccc1 |
| 1400 | C[C@H](Nc1nc(-n2cnc3ccncc32)nc2c1cc(C(=O)N1CCOCC1)n2C)c1ccccc1 |
| 740 | CONC(=O)c1cc2c(N[C@@H](C)c3ccccc3)nc(-n3cnc4ccncc43)nc2n1C |
| 2200 | COc1ccc(Cl)c(Nc2nc(-n3cnc4ccncc43)nc3c2cc(C(=O)N2CCN(C)CC2)n3C)c1 |
